Laboratory results published in US12370161B2, “Composition for treating atopy or pruritus comprising N-acetyl or N-acyl amino acid” (STEMDR INC., priority 2017, dated 2025).
Entries after “also recorded” stand apart in the source; their conditions may differ.

Tests used:
interferon γ [1] = assay: Interferon γ mRNA in skin tissue by quantitative real-time PCR, Balb/c; type: in vivo, mouse; settings: atopy-induced Balb/c mice, normalized to β-actin
Experimental: (§1) After isolating total RNA from the atopy-induced skin tissue using 500 μL of Trizol (Life Technologies, USA) according to the manufacturer's protocol and synthesizing cDNA using the Superscript III reverse transcriptase (Life Technologies, USA), real-time PCR was conducted by reacting with the primers of IL4 and interferon γ to be analyzed. The real-time PCR was conducted on a StepOne Plus PCR cycler (Applied Biosystems) using SYBR Green (Applied Biosystems, Foster City, CA). The mRNA expression data were analyzed by the ΔΔCT method and were normalized to β-actin for gene detection. The primers necessary for the real-time PCR were purchased from Qiagen (USA). […] IL4 is known to induce TH2 response and interferon γ is known to induce TH1 response.

[2] = test system: atopic dermatitis-induced Balb/c mouse; assay: SCORAD clinical skin score, DNFB-induced atopic dermatitis in Balb/c mouse; type: in vivo; set-up: key to Mouse 1 Sum / Mean (of Sum, SCORAD) / Mouse 2 Sum / Mouse 3 Sum: sum of symptom grades, each 0 (none) to 3 (severe); settings: for skin-soothing and atopic dermatitis-treating effect (SCORAD, Table 1, FIG. 2A): Balb/c atopic dermatitis model, 0.1% topical, P<0.05 versus DNFB group; for apparent degree of dermatitis (back skin images, FIG. 2B): Balb/c, treated for 7 days, day 29; for Mouse 1 Erythema / Mouse 1 Abrasion / Mouse 1 Dryness / Mouse 1 Edema / Mouse 1 Eschar / Mouse 1 Lichenification / Mouse 1 Sum / Mouse 2 Abrasion / Mouse 2 Dryness / Mouse 2 Edema / Mouse 2 Erythema / Mouse 2 Eschar / Mouse 2 Lichenification / Mouse 2 Sum / Mouse 3 Abrasion / Mouse 3 Dryness / Mouse 3 Edema / Mouse 3 Erythema / Mouse 3 Eschar / Mouse 3 Lichenification / Mouse 3 Sum / Mean (of Sum, SCORAD): DNFB Balb/c; for Mouse 1 Erythema: 0.1% in PBS, 200 μL on back skin daily day 22-28, grade 0-3 (0 no symptom, 1 mild, 2 moderate, 3 severe); for Mouse 1 Abrasion / Mouse 1 Dryness / Mouse 1 Edema / Mouse 1 Eschar / Mouse 1 Lichenification / Mouse 1 Sum / Mouse 2 Abrasion / Mouse 2 Dryness / Mouse 2 Edema / Mouse 2 Erythema / Mouse 2 Eschar / Mouse 2 Lichenification / Mouse 2 Sum / Mouse 3 Abrasion / Mouse 3 Dryness / Mouse 3 Edema / Mouse 3 Erythema / Mouse 3 Eschar / Mouse 3 Lichenification / Mouse 3 Sum / Mean (of Sum, SCORAD): 0.1% topical day 22-28; for Mouse 1 Abrasion / Mouse 1 Dryness / Mouse 1 Edema / Mouse 1 Eschar / Mouse 1 Lichenification / Mouse 2 Abrasion / Mouse 2 Dryness / Mouse 2 Edema / Mouse 2 Erythema / Mouse 2 Eschar / Mouse 2 Lichenification / Mouse 3 Abrasion / Mouse 3 Dryness / Mouse 3 Edema / Mouse 3 Erythema / Mouse 3 Eschar / Mouse 3 Lichenification: grade 0-3; for Mouse 1 Sum / Mouse 2 Sum / Mouse 3 Sum: overall dermatitis score, sum of individual scores; for Mean (of Sum, SCORAD): mean of 3 mice
Outline: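 Mice sensitized with 0.35% DNFB on shaved back, then challenged with 0.25% DNFB on days 6–27; 0.1% N-acetyl/N-acylamino acid in PBS applied topically daily days 22–28, 12 h apart from DNFB. Blinded SCORAD: six symptoms each graded 0–3, summed.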

[3] = test system: atopic dermatitis-induced Nc/Nga mouse; assay: Hematoxylin/eosin staining of back skin tissue, epidermal and dermal thickness; type: in vivo; settings: 5 μm slices
From the text: After extracting back skin tissues of the atopic dermatitis-induced and drug-treated Nc/Nga mice of Example 2, the tissues were fixed with an Accustain formalin-free fixative solution and then prepared into paraffin blocks. The paraffin blocks were sliced to a thickness of 5 μm and the change in the thickness of the epidermal and dermal layers was observed by staining with hematoxylin/eosin.

IgE [4] = assay: Serum IgE level by ELISA, Nc/Nga; type: in vivo, mouse; settings: atopy-induced Nc/Nga mice
Experimental: (§2) After treatment with the test substance, the mice were sacrificed and blood was taken from the heart. After isolating serum from the blood, IgE level was measured. Specifically, after attaching antibodies diluted in a buffer solution onto a 96-well plate and incubating overnight at 4° C., experiment was conducted using an IgE ELISA kit (BD Biosciences, San Diego, CA) according to the provided manual. The quantity of the IgE protein was determined by measuring absorbance at 450 nm using a microplate reader.

IgE [5] = assay: Serum IgE level by ELISA, Balb/c; type: in vivo, mouse; settings: atopy-induced Balb/c mice
Experimental: as §2

[6] = test system: atopic dermatitis-induced Nc/Nga mouse; assay: SCORAD clinical skin score, DNFB-induced atopic dermatitis in Nc/Nga mouse; type: in vivo
Experimental: In order to establish a model more similar to an atopy model than that of the Balb/c mice, atopy was induced in Nc/Nga mouse mice. Specifically, after inducing DNFB sensitization by applying 100 μL of 0.35% 2,4-dinitrofluorobenzene (DNFB) in acetone/olive oil (3:1) on the shaved back skin, dermatitis was induced by applying 100 μL of 0.15% DNFB for 4-20 days, every other day. Control mice were treated with a vehicle of the same volume (FIG. 1B).
After dissolving an N-acetyl or N-acylamino acid in phosphate-buffered saline to 0.1%, 200 μL of the solution was applied on the back skin of the mice every day, from day 22 until day 28 for the Balb/c atopic dermatitis model, and from day 15 until day 21 for the Nc/Nga atopic dermatitis model. When the N-acetyl or N-acylamino acid was treated together with DNFB, they were treated with 12-hour intervals in order to avoid direct reaction between the DNFB and the N-acetyl or N-acylamino acid. A non-treated group and a 2,4-dinitrofluorobenzene (DNFB) group were treated with phosphate-buffered saline of the same volume (FIGS. 1A-1B). As the N-acetylamino acid, products purchased from Sigma-Aldrich (USA), MP scientific (USA), TCI (Tokyo Chemical Industry, Japan), Santacruz (USA), etc. were used without purification.
The degree of skin soothing and the severity of atopic dermatitis were evaluated macroscopically according to the previously established SCORAD (SCORing Atopic Dermatitis) method (Oranje et al., 2007). The degree of symptoms such as edema, erythema, eschar, dryness, abrasion, lichenification, etc. was graded from 0 to 3 (0, no symptom; 1, mild; 2, moderate; 3, severe). The overall dermatitis score was determined from the sum of all individual scores (Table 1). The assessment was performed by an investigator who was blind to the grouping of the mice.
Skin-soothing effect and the severity of dermatitis were evaluated for the acyl derivatives of tryptophan synthesized in Example 9, the acyl derivative of alanine synthesized in Example 10 and N-palmitoylalanine (purchased from Santacruz (USA)) according to the method of Example 4 (Table 2)

interferon γ [7] = assay: Interferon γ mRNA in skin tissue by quantitative real-time PCR, Nc/Nga; type: in vivo, mouse; settings: atopy-induced Nc/Nga mice, normalized to β-actin
Experimental: as §1

[8] = test system: pruritus caused by atopic contact dermatitis; assay: Pruritus inhibition test, pruritus induced with DNFB; type: in vivo, mouse; settings: 0.1% in physiological saline applied once onto right ear, pruritus measured for 1 hour
Experimental: In order to investigate whether L-form, LID-form and D-form N-acetylalanine, N-acetylarginine, N-acetylthreonine and N-acetyltryptophan inhibit pruritus caused by atopic contact dermatitis, 20 μL of 0.1% 2,4-dinitrofluorobenzene (DNFB) solution and 0.1% N-acetylamino acid dissolved in physiological saline were applied once onto the right ear 10 minutes after the final treatment (day 27) with 2,4-dinitrofluorobenzene (DNFB) (Physiological saline was applied to a negative control group), and then pruritus was measured for 1 hour. FIG. 7 compares the pruritus-relieving effect of L-form N-acetylalanine, N-acetylthreonine, N-acetylarginine and N-acetyltryptophan with D/L-form and D-form N-acetylalanine and N-acetyltryptophan at 0.1% after the induction of pruritus with DNFB.

IL4 [9] = assay: IL4 mRNA in skin tissue by quantitative real-time PCR, Nc/Nga; type: in vivo, mouse; settings: atopy-induced Nc/Nga mice, normalized to β-actin
Experimental: as §1

IL4 [10] = assay: IL4 mRNA in skin tissue by quantitative real-time PCR, Balb/c; type: in vivo, mouse; settings: atopy-induced Balb/c mice, normalized to β-actin
Experimental: as §1

SMILES	level of interferon γ in the skin tissue (FIG. 5A) (interferon γ [1])	skin-soothing and atopic dermatitis-treating effect (SCORAD, Table 1, FIG. 2A) [2]	apparent degree of dermatitis (back skin images, FIG. 2B) [2]	Mouse 1 Erythema [2]	Mouse 1 Abrasion [2]	Mouse 1 Dryness [2]	Mouse 1 Edema [2]	Mouse 1 Eschar [2]	Mouse 1 Lichenification [2]	Mouse 1 Sum [2]	Mouse 2 Abrasion [2]	Mouse 2 Dryness [2]	Mouse 2 Edema [2]	Mouse 2 Erythema [2]	Mouse 2 Eschar [2]	Mouse 2 Lichenification [2]	Mouse 2 Sum [2]	Mouse 3 Abrasion [2]	Mouse 3 Dryness [2]	Mouse 3 Edema [2]	also measured
CC(=O)N[C@@H](C)C(=O)O [N-acetyl-L-alanine]	significantly decreased	significant skin-soothing and atopic dermatitis-treating effects; also recorded: significant atopic dermatitis-treating effect	decreased remarkably	1	1	2	1	1	0	6	1	0	1	1	1	0	4	1	0	1	Mouse 3 Erythema [2]: 1; Mouse 3 Eschar [2]: 1; Mouse 3 Lichenification [2]: 1; Mouse 3 Sum [2]: 5; Mean (of Sum, SCORAD) [2]: 5; thickness of the epidermal and dermal layers (FIG. 3C) [3]: significantly decreased; serum IgE level (FIG. 4B) (IgE [4]): significant decrease; serum IgE level (FIG. 4A) (IgE [5]): significant decrease; atopic dermatitis-treating effect (SCORAD, FIG. 3A) ([6]; Nc/Nga atopic dermatitis model, 0.1% topical): showed atopic dermatitis-treating effect; dermatitis-treating effect of L-, L/D- and D-form (FIG. 6) ([6]; Nc/Nga atopic dermatitis model, 0.1%, listed as L-form N-acetylalanine): remarkable effect; effect in Nc/Nga model (back skin images, FIG. 3B) ([6]; Nc/Nga, treated for 7 days, day 22): remarkable effect; level of interferon γ in the skin tissue (FIG. 5B) (interferon γ [7]): significantly decreased; pruritus-relieving effect (FIG. 7) ([8]; listed as L-form N-acetylalanine): significantly inhibited pruritus; level of IL4 in the skin tissue (FIG. 5B) (IL4 [9]): significantly decreased; level of IL4 in the skin tissue (FIG. 5A) (IL4 [10]): significantly decreased
CC(=O)N[C@H](C(=O)O)[C@@H](C)O [N-acetyl-L-threonine]	significantly decreased	significant skin-soothing and atopic dermatitis-treating effects; also recorded: significant atopic dermatitis-treating effect	decreased remarkably	1	1	2	1	1	1	7	1	0	1	1	1	1	5	0	1	1	Mouse 3 Erythema [2]: 1; Mouse 3 Eschar [2]: 2; Mouse 3 Lichenification [2]: 1; Mouse 3 Sum [2]: 6; Mean (of Sum, SCORAD) [2]: 6; serum IgE level (FIG. 4A) (IgE [5]): significant decrease; pruritus-relieving effect (FIG. 7) [8]: significantly inhibited pruritus; level of IL4 in the skin tissue (FIG. 5A) (IL4 [10]): significantly decreased
